The values below come from US4200636A, “3-Amino-17a-aza-D-homoandrostane compounds, and pharmaceutical compositions containing them” (priority 1977, dated 1980).

One test concerns tibialis muscle. The test can be described thus: Neuromuscular block in anesthetized cats (electrically stimulated peroneal nerve, tibialis muscle contractions). In kind it is in vivo. As to conditions: for Activity period: i.v., time between first appearance of the effect and restoration of normal muscle contractions; for ED50: i.v. dose reducing the contractions to half of their original values, 4 doses. The procedure: The potency and the activity period of the compounds according to the invention were tested on anesthesized cats and alert dogs. On anesthesized cats the peroneal nerve was electrically stimulated and the corresponding contractions of the tibialis muscle was registrated. The i.v. doses of the various test compounds which reduced the contractions to half of their original values were determined (ED50 -values). In the attached Table I the ED50 -values and the corresponding activity periods are shown, the term "activity period" is intended to mean the time interval between the first appearance of the effect of the test compounds and the restoration of the normal muscle contractions. For each test compound 4 doses were used and for each dose 6 animals were examined. As a reference compound suxamethonium was used, which is a known compound widely used as a neuromuscular blocking agent having a short activity period.

Another test deals with muscle relaxation. Nature of the test: Total muscle relaxation in alert dogs. Type of test: in vivo. As to conditions: for Activity period: time between administration and disappearance of the activity; for Time until the max. effect: time between administration and total muscle relaxation. Here is the method:
To alert dogs (6 animals for each test compound) four doses causing a total muscle relaxation were administered and the time between the administration and the total muscle relaxation as well as the time between the administration and the disappearance of the activity was measured.

[1] abbreviates: Dose 100 (unit not printed), listed as 3 β-Pyrrolidino-17a-methyl-17a-aza-D-homo-5 α-androstane-di-methobromide.
Where [2] appears, read: Dose 100 (unit not printed), listed as 3 β-Pyrrolidino-17a-methyl-17a-aza-D-homo-5α -androstane-di-methoiodide.

Read-outs that look alike come from different tables or passages of the source.

The compound `C[C@]12CC[C@H]([N+]3(C)CCCC3)C[C@@H]1CC[C@@H]1[C@@H]2CC[C@@]2(C)[C@H]1CCC[N+]2(C)C` [3 β-Pyrrolidino-17a-methyl-17a-aza-D-homo-5α-androstane-di-m] [3β-Pyrrolidino-17a-methyl-17a-aza-D-homo-5α-androstane dimethobromide] registered an Activity period with tibialis muscle of 13.0 min. Besides, in the test on muscle relaxation (setting [1]), the Activity period was 9.5 min and the “Time until the max. effect” value was 21 s.
Consider `C[C@]12CC[C@@H]([N+]3(C)CCCC3)C[C@@H]1CC[C@@H]1[C@@H]2CC[C@@]2(C)[C@H]1CCC[N+]2(C)C` [3 α-Pyrrolidino-17a-methyl-17a-aza-D-homo-5α-androstane-di-m] [3α-Pyrrolidino-17a-methyl-17a-aza-D-homo-5α-androstane dimethobromide], for which the Activity period is listed as 11.2 min in the test on tibialis muscle and 8.6 min in the test on muscle relaxation (Dose 100 (unit not given)). Further, the “Time until the max. effect” value in the test with muscle relaxation (Dose 100 (unit not given)) turned out to be 18 s.
On to `C[N+](C)(C)CCOC(=O)CCC(=O)OCC[N+](C)(C)C` [Suxamethonium, reference compound], for which the ED50 with tibialis muscle (Felis catus, iv, read-out: ED50) came to 0.06 mg/kg. In the test on tibialis muscle, this compound showed an Activity period of 11.0 min. Besides, in the test with muscle relaxation (Dose 100 (unit not given)), the Activity period is on record as 10.3 min and the “Time until the max. effect” value came to 16 s.
Turning to `C[C@]12CC[C@@H]([N+]3(C)CCCC3)C[C@@H]1CC[C@@H]1[C@@H]2CC[C@@]2(C)[C@H]1CCC[N+]2(C)C` [3 αPyrrolidino-17a-methyl-17a-aza-D-homo-5α-androstane-di-me] [3α-Pyrrolidino-17a-methyl-17a-aza-D-homo-5α-androstane dimethoiodide], in the test with tibialis muscle, the ED50 came out at 0.12 mg/kg and the Activity period is recorded as 12.4 min. In the test with muscle relaxation (Dose 100 (unit not given)), the Activity period stood at 8.5 min and the “Time until the max. effect” value came out at 19 s.
On to `C[C@]12CC[C@H]([N+]3(C)CCCC3)C[C@@H]1CC[C@@H]1[C@@H]2CC[C@@]2(C)[C@H]1CCC[N+]2(C)C` [3 β-Pyrrolidino-17a-methyl-17a-aza-D-homo-5α-androstane-di-m] [3β-Pyrrolidino-17a-methyl-17a-aza-D-homo-5α-androstane dimethoiodide], for which, in the test with tibialis muscle, the ED50 was 0.105 mg/kg and the Activity period came to 12.6 min. Also, in the test with muscle relaxation (setting [2]), the Activity period is 8.8 min and the “Time until the max. effect” value was 17 s.
As to `C[C@]12CC[C@@H]([N+]3(C)CCCC3)C[C@@H]1CC[C@@H]1[C@@H]2CC[C@@]2(C)[C@H]1CCC[N+]2(C)C` [3α-Pyrrolidino-17a-methyl-17a-aza-D-homo-5α-androstane dimethobromide], in the test with tibialis muscle (Felis catus, iv), the ED50 turned out to be 0.1 mg/kg.
Regarding `C[C@]12CC[C@H]([N+]3(C)CCCC3)C[C@@H]1CC[C@@H]1[C@@H]2CC[C@@]2(C)[C@H]1CCC[N+]2(C)C` [3β-Pyrrolidino-17a-methyl-17a-aza-D-homo-5α-androstane dimethobromide], in the test with tibialis muscle (Felis catus, iv), it took a dose of 0.125 mg/kg to reach the 50% effect level (ED50).
